Where “and” joins values, the source holds several entries; their conditions need not be identical. Equal entries are not always repeated. Marks after values point to notes of the source that are not given here.
Key:
[1] = system: RTX-induced mouse ear edema; assay: Inhibition of resiniferatoxin (RTX)-induced inflammation (edema) of the mouse ear; format: in vivo; parameters: Mean (edema): unit not given here; conditions: for % Inhibition of Edema (RTX-induced edema in mouse ears): Dose 50 μg/ear; for activity in inhibition of RTX-induced edema: in words; for % Inh. Of Edema / Mean (difference, edema) / Difference (left ear minus right ear), single animals / Mean (edema): RTX 0.1 μg/ear; for ED50 for inhibition of RTX-induced edema: topical, with RTX
Experimental: Induction of mouse ear edema can be conducted according to known methods. See Inoue, 1-f., N. Nagata, Y. Koshffiara (1993), which is herein incorporated by reference. Compounds to be tested for anti-neurogenic inflammatory activity are topically applied in acetone to the ears of mice in a solution that includes the edema-causing irritant resiniferatoxin (RTX). […] After a 30-minute incubation, the mice are sacrificed, the ears removed, and bores taken and weighed. Edema is measured by subtracting the weight of the right ear (acetone control) from the weight of the left ear (treated). Results are recorded as % decrease (inhibition) or % increase (potentiation) in edema relative to the control group edema.
Soritin B was tested for anti-neurogenic inflammatory activity by topically applying in acetone to the ears of mice in a solution that includes the edema-causing irritant resiniferatoxin (RTX) as provided above. See Inoue, 1-f., N. Nagata, Y. Koshffiara (1993), which is herein incorporated by reference. […] After a 30-minute incubation, the mice are sacrificed, the ears removed, and bores taken and weighed. Edema was measured by subtracting the weight of the right ear (acetone control) from the weight of the left ear (treated). Results were recorded as % decrease (inhibition) or % increase (potentiation) in edema relative to the control group edema.

[2] = system: PMA-induced mouse ear edema; assay: Inhibition of PMA-induced inflammation (edema) of the mouse ear; format: in vivo; parameters: Mean (edema): unit not given here; conditions: for ED50, topical inhibition of PMA-induced mouse ear edema: with PMA; for Difference (left ear minus right ear), single animals: listed as Compound I
Experimental: (§1) The test compound and a known inflammatory agent, phorbol myristate acetate (PMA), are topically applied simultaneously to the left ears of mice. Three hours and 20 minutes following application, the mice are sacrificed. Both left ears and right ears are removed and standard sized bores taken. Edema (inflammation) is measured as the difference in weight between left and right ears. See Van Arman, C. G. (1974) Clin. Pharmacol. Ther. 16:900-904, which is herein incorporated by reference.
as §1, with “Soritin B and” for “The test compound and”, “(PMA), were” for “(PMA), are”, “mice were” for “mice are”, “ears were” for “ears are”, “(inflammation) was” for “(inflammation) is”

[3] = Soritin B assay: coloration in solution; format: physicochemical; conditions: dissolved in acetone
[4] = 50 μg/ear, listed as Compound I
[5] = 3.12 μg/ear, PMA 2.0 μg/ear, n = 15
[6] = 6.25 μg/ear, PMA 2.0 μg/ear, n = 15
[7] = 12.5 μg/ear, PMA 2.0 μg/ear, n = 15
[8] = 25 μg/ear, PMA 2.0 μg/ear, n = 15

c1ccc2c(Cc3c[nH]c4ccccc34)c[nH]c2c1 [HB-236, bis(3,3′indolyl)methane]
% Inhibition of Edema (RTX-induced edema in mouse ears) [1]: 59.1% | activity in inhibition of RTX-induced edema [1]: show activity

O=CC(c1c[nH]c2ccccc12)c1c[nH]c2ccccc12 [HB-237, 2,2-bis(3,3′indolyl) acetaldehyde]
% Inhibition of Edema (RTX-induced edema in mouse ears) [1]: 50.1% | activity in inhibition of RTX-induced edema [1]: show activity

C[C@]12CCC(=O)C=C1CC[C@@H]1[C@@H]2[C@@H](O)C[C@@]2(C)[C@H]1CC[C@]2(O)C(=O)CO [Hydrocortisone, hydrocortisone, reference compound]
ED50, topical inhibition of PMA-induced mouse ear edema [2]: 20 μg/ear

COc1ccc2c(c1)c(CC(=O)O)c(C)n2C(=O)c1ccc(Cl)cc1 [Indomethacin, indomethacin, reference compound]
ED50, topical inhibition of PMA-induced mouse ear edema [2]: 250 μg/ear

CC1=C(CC/C(C)=C/CCC2=CC[C@H](C3=CC(=O)O[C@H]3O)O[C@H]2O)C(C)(C)CCC1 [Manoalide, manoalide, reference compound]
ED50, topical inhibition of PMA-induced mouse ear edema [2]: 100 μg/ear

O=C(O)C(c1c[nH]c2ccccc12)c1c[nH]c2ccccc12 [Soritin A, bis-(1H-indol-3-yl)-acetic acid]
% Inh. Of Edema ([1]; 3.12 μg/ear): 49.9% | Mean (difference, edema) ([1]; 3.12 μg/ear): 6.0 mg | Difference (left ear minus right ear), single animals ([1]; 3.12 μg/ear, listed as Compound I): 6.0 mg (2×) and 6.6 mg and 7.1 mg and 4.1 mg and 6.3 mg | % Inh. Of Edema ([1]; 6.25 μg/ear): 33.6% | Mean (difference, edema) ([1]; 6.25 μg/ear): 8.0 mg | Difference (left ear minus right ear), single animals ([1]; 6.25 μg/ear, listed as Compound I): 6.0 mg and 11.2 mg and 7.3 mg and 10.1 mg and 8.3 mg and 5.0 mg | % Inh. Of Edema ([1]; 12.5 μg/ear): 76.8% | Mean (difference, edema) ([1]; 12.5 μg/ear): 2.8 mg | Difference (left ear minus right ear), single animals ([1]; 12.5 μg/ear, listed as Compound I): 3.8 mg and 3.6 mg and 3.1 mg and 1.1 mg and 1.7 mg and 3.4 mg | % Inh. Of Edema ([1]; 25 μg/ear): 87.9% | Mean (difference, edema) ([1]; 25 μg/ear): 1.5 mg | Difference (left ear minus right ear), single animals ([1]; 25 μg/ear, listed as Compound I): 4.1 mg and 0.2 mg and 2.1 mg and 0.6 mg and 0.3 mg | Mean (difference, edema) ([1]; 50 μg/ear): 0.3 mg | % Inh. Of Edema [1, 4]: 97.7% | Difference (left ear minus right ear), single animals [1, 4]: 0.1 mg and −0.2 mg (2×) and 1.5 mg | % Inh. Of Edema ([1]; 50 μg/ear, listed as Soritin A (I)): approximately 97.7% | % Inhibition of Edema (RTX-induced edema in mouse ears) [1]: 97.7% | ED50 for inhibition of RTX-induced edema [1]: 5.1 μg/ear | % Inh. Of Edema ([2]; 3.12 μg/ear, PMA 2 μg/ear): 52.9% | Mean (difference, edema) ([2]; 3.12 μg/ear, PMA 2 μg/ear): 6.4 mg | Difference (left ear minus right ear), single animals ([2]; 3.12 μg/ear, PMA 2 μg/ear): 4.0 mg and 8.7 mg (2×) and 4.3 mg | % Inh. Of Edema ([2]; 6.25 μg/ear, PMA 2 μg/ear): 75.1% | Mean (difference, edema) ([2]; 6.25 μg/ear, PMA 2 μg/ear): 3.4 mg | Difference (left ear minus right ear), single animals ([2]; 6.25 μg/ear, PMA 2 μg/ear): 1.2 mg and 4.5 mg and 2.4 mg and 5.5 mg | % Inh. Of Edema ([2]; 12.5 μg/ear, PMA 2 μg/ear): 77.3% | Mean (difference, edema) ([2]; 12.5 μg/ear, PMA 2 μg/ear): 3.1 mg | Difference (left ear minus right ear), single animals ([2]; 12.5 μg/ear, PMA 2 μg/ear): 4.1 mg and 1.9 mg and 1.2 mg and 5.2 mg | % Inh. Of Edema ([2]; 25 μg/ear, PMA 2 μg/ear): 84.9% | Mean (difference, edema) ([2]; 25 μg/ear, PMA 2 μg/ear): 2.1 mg | Difference (left ear minus right ear), single animals ([2]; 25 μg/ear, PMA 2 μg/ear): 1.7 mg and 3.4 mg and 0.4 mg and 2.8 mg | % Inh. Of Edema ([2]; 50 μg/ear, PMA 2 μg/ear): 87.5% | Mean (difference, edema) ([2]; 50 μg/ear, PMA 2 μg/ear): 1.7 mg | Difference (left ear minus right ear), single animals ([2]; 50 μg/ear, PMA 2 μg/ear): 1.6 mg and 2.2 mg and 1.3 mg and 1.7 mg | potency in reducing PMA-induced mouse ear edema relative to known anti-inflammatories ([2]; in words): greater potency than the known anti-inflammatories hydrocortisone, indomethacin, manoalide and topsentin | ED50, topical inhibition of PMA-induced mouse ear edema [2]: 1.3 μg/ear

COC(=O)C(c1c[nH]c2ccccc12)c1c[nH]c2ccccc12 [Soritin B, bis-(1H-indol-3-yl)-acetic acid methyl ester]
% Inh. Of Edema ([1]; 3.12 μg/ear, n = 15): 7.7% | Mean (edema) ([1]; 3.12 μg/ear, n = 15): 9.1 | % Inh. Of Edema ([1]; 6.25 μg/ear, n = 15): 34.3% | Mean (edema) ([1]; 6.25 μg/ear, n = 15): 6.5* | % Inh. Of Edema ([1]; 12.5 μg/ear, n = 15): 61.0% | Mean (edema) ([1]; 12.5 μg/ear, n = 15): 3.2* | % Inh. Of Edema ([1]; 25 μg/ear, n = 14): 79.2% | Mean (edema) ([1]; 25 μg/ear, n = 14): 1.7* | Mean (edema) ([1]; 50 μg/ear, n = 15): 1.0* | ED50 for inhibition of RTX-induced edema [1]: 10.9 μg/ear | color in solution [3]: light amber color | % Inh. Of Edema [2, 5]: 14.6% | Mean (edema) [2, 5]: 10.0** | % Inh. Of Edema [2, 6]: 17.1% | Mean (edema) [2, 6]: 9.7** | % Inh. Of Edema [2, 7]: 27.1% | Mean (edema) [2, 7]: 8.6* | % Inh. Of Edema [2, 8]: 50.0% | Mean (edema) [2, 8]: 5.9* | Mean (edema) ([2]; 50 μg/ear, PMA 2.0 μg/ear, n = 15): 3.4* | ED50, topical inhibition of PMA-induced mouse ear edema [2]: 24.2 μg/ear

O=C(c1nc(-c2c[nH]c3ccccc23)c[nH]1)c1c[nH]c2cc(O)ccc12 [Topsentin, topsentin, reference compound]
ED50, topical inhibition of PMA-induced mouse ear edema [2]: 15 μg/ear
